Assay results from US7776791B2, “N-heterocyclyl phenyl-substituted cyclic ketoenols” (Bayer CropScience AG, priority 2003, dated 2010).

Legend:
Type in all cases: in vivo
[1] = system: monocotyledonous and dicotyledonous weed and crop plants; experiment: Herbicidal post-emergence action (K); conditions: greenhouse, 320 g of a.i./ha, EC formulation
Protocol: K. Herbicidal Post-Emergence Action
Seeds of monocotyledonous and dicotyledonous weed and crop plants are placed into sandy loam in wood fibre pots, covered with soil and cultivated in a greenhouse under good growth conditions. 2-3 weeks after sowing, the test plants are treated at the one-leaf stage. The test compounds, formulated as wettable powders (WP) or emulsifiable concentrates (EC), are, in various dosages with a water application rate of 600 l/ha (converted), with 0.2% of wetting agent added, sprayed onto the green parts of the plants. After the test plants were kept in a greenhouse under optimum growth conditions for about 3 weeks, the effect of the preparations is rated visually in comparison to untreated controls (herbicidal effect in percent (%): 100% effect=the plants have died, 0% effect=like controlled plants).

[2] = system: caterpillars of the army worm (Spodoptera frugiperda); experiment: Spodoptera frugiperda test; conditions: 100 ppm active compound, leaf dip
Protocol: Solvent: 7 parts by weight of dimethylformamide
Emulsifier: 2 parts by weight of alkylaryl polyglycol ether
To produce a suitable preparation of active compound, 1 part by weight of active compound is mixed with the stated amounts of solvent and emulsifier, and the concentrate is diluted with emulsifier-containing water to the desired concentration.
Cabbage leaves (Brassica oleracea) are treated by being dipped into the preparation of active compound of the desired concentration and are populated with caterpillars of the army worm (Spodoptera frugiperda) while the leaves are still moist.
After the desired period of time, the kill in % is determined. 100% means that all caterpillars have been killed; 0% means that none of the caterpillars have been killed.

[3] = system: larvae of the mustard beetle (Phaedon cochleariae); experiment: Phaedon larvae test; conditions: 500 ppm active compound, leaf dip
Protocol: Solvent: 7 parts by weight of dimethylformamide Emulsifier: 2 parts by weight of alkylaryl polyglycol ether To produce a suitable preparation of active compound, 1 part by weight of active compound is mixed with the stated amounts of solvent and emulsifier, and the concentrate is diluted with emulsifier-containing water to the desired concentration. Cabbage leaves (Brassica oleracea) are treated by being dipped into the preparation of active compound of the desired concentration and are populated with larvae of the mustard beetle (Phaedon cochleariae) while the leaves are still moist.

Row | SMILES | herbicidal effect in percent, Echinochloa ([1]; Echinochloa) [%] | herbicidal effect in percent, Setaria ([1]; Setaria) [%] | herbicidal effect in percent, Sorghum ([1]; Sorghum) [%] | herbicidal effect in percent, Sugar beet ([1]; Sugar beet) [%] | Kill rate in % after 7 d [2] [%] | Kill rate in % after 7 d [3] [%]
1 | COC1CCC2(CC1)NC(=O)C(c1cc(-n3cc(Cl)cn3)ccc1C)=C2O (stereo not shown) [Ex. I-1-a-1] | 100 | 100 | 90 | 0 | 85 | –
2 | Cc1ccc(-n2cc(Cl)cn2)cc1C1=C(O)C2(CCCCC2)CC1=O [Ex. I-6-a-1] | – | – | – | – | – | 90
3 | Cc1ccc(-n2cc(Cl)cn2)cc1C1=C(O)CC(C)(C)CC1=O [Ex. I-7-a-1] | – | – | – | – | – | 100
